Settings: TG, oxidizing atmosphere

Tonset, the onset of the thermal degradation: 249.9 °C
SMILES: COc1ccc2cc([C@H](C)C(=O)O)ccc2c1 [Naproxen, (+)-(S)-2-(6-Methoxynaphthalen-2-yl)propanoic acid]
